From patent US20140030808A1, “Method for Cellular RNA Expression” (BIONTECH AG, priority 2010, published 2014)

Tests used:
[1] = test system: immature dendritic cells (iDCs); experiment: GFP expression by flow cytometry in iDCs electroporated with IVT RNA; type: cell-based, human; settings: 0.5 μM to 2 μM
Description: Human primary CD4 and CD 8 positive T-cells, as well as immature dendritic cells (iDCs) were isolated and electroporated with 5 μg IVT RNA encoding for destabilized GFP. iDCs were coelectroporated with 1 μg IVT RNA encoding for firefly luciferase. The cells were either left untreated or incubated with increasing amounts of C13H8N4OS (PKR-inhibitor) ranging from 0.5 μM to 2 μM as indicated in the panel legends. (A) T-cells and (B) iDCs were harvested at the indicated time points and GFP expression was assessed by flow cytometry. The mean fluorescence intensity (MFI) of the transfected, GFP-positive cell fractions is shown. (C) For luciferase assays, iDCs were plated in duplicates into 96-well-plates at a density of 10000 cells/well. Luciferase activity was measured at the indicated time points. Mean values of the duplicates are given.
For quantification of d2eGFP and eGFP protein, cells were washed in PBS, fixed using PBS supplemented with 2% formaldehyde and analyzed by flow cytometry on a FACS Canto II flow cytometer (BD Biosciences, Heidelberg, Germany). Gating was performed on living cells and mean fluorescence intensity (MFI) of GFP expressing cell populations was quantified using FlowJo software (Tree Star, Ashland, Oreg., USA). […] Gating was performed on living CD4+ and CD8+ T-cells and GFP expression and MFI of both T-cell subpopulations was determined by flow cytometry. […]

[2] = test system: Primary human foreskin fibroblasts (BJ, CCD1079Sk); experiment: Intracellular FACS staining of reprogramming transcription factors after IVT RNA transfer; type: cell-based
Description: (AB) Primary human foreskin fibroblasts from different donors and suppliers (panel A: BJ fibroblasts; panel B: CCD1079Sk) and (C) MEFs were electroporated with 0.5 μg IVT RNA encoding for firefly luciferase and 1.25 μg IVT RNA encoding for eGFP and 2.5 μg of IVT RNA encoding for each of the individual reprogramming factors OCT4, SOX2, KLF4 and c-MYC. Electroporations were performed in 2 mm gap cuvettes using optimized parameters for each cell type. The cells were plated into 6-well-plates at a density of 250000 cells/well. The cells were either left untreated or incubated with increasing amounts of C13H8N4OS (PKR-inhibitor) ranging from 0.5 μM to 2 μM as indicated in the panel legend. The OCT4 expression was detected by intracellular staining with a fluorescently labeled antibody and measured by flow cytometry at the indicated time points. The mean fluorescence intensity (MFI) of the transfected OCT4-positive cell fractions is shown. (D) CCD1079Sk fibroblasts were electroporated with IVT RNA as in B and treated for 24 h or 48 h with 2 μM C13H8N4OS. 72 h post electroporation the cells were harvested and intracellular staining with fluorescent labeled antibodies reactive against the indicated transcription factors were performed. The MFI of the transcription factor-positive cell fractions are shown.
Intracellular FACS staining of OCT4, SOX2 and NANOG was done using the human pluripotent stem cell transcription factor analysis kit following the manufacturer's instructions (BD Bioscience). Briefly, 3-5×10^5 cells were harvested, washed twice with PBS and fixed for 20 min in 250 μl BD Cytofix Buffer (BD Biosciences) at room temperature. After the incubation cells were washed twice with PBS and permeabilized by washing twice with 1× Perm/Wash Buffer (BD Bioscience) followed by 10 minutes incubation in 50 μl 1× Perm/Wash at room temperature. […] Cells were resuspended in PBS supplemented with 2% formaldehyde and analyzed by flow cytometry as described above. […]

[3] = 2 μM for 24 h or 48 h, 72 h post electroporation

## O=C1Nc2ccc3ncsc3c2/C1=C/c1c[nH]cn1 [C13H8N4OS, 6,8-dihydro-8-(1H-imidazol-5-ylmethylene)-7H-pyrrolo[2,3-g]benzothiazol-7-one]
[1]
  GFP expression (MFI): Neither in T-cells nor in iDCs PKR inhibition led to an increased GFP expression
[2]; 0.5 μM to 2 μM permanently or 2 μM for 24 h or 48 h
  OCT4 expression (MFI): strongly increased and stabilized
[2]; [3]
  Nanog expression (MFI): strongly increased and stabilized
  SOX2 expression (MFI): strongly increased and stabilized
